# The source made the active and inactive calls. The rule behind the calls is not given here.
# Assays:
# [1] = system: A549; assay: Cytotoxicity against human A549 cells; format: functional, cell-based
# [2] = system: MCF7; assay: Cytotoxicity against human MCF7 cells; format: functional, cell-based
# [3] = system: HeLa; assay: Cytotoxicity against human HeLa cells; format: functional, cell-based
# [4] = system: MCF7; assay: Antiproliferative activity against human MCF7 cells by MTT reduction assay; format: functional, cell-based
# [5] = system: Ehrlich; assay: Cytotoxicity against mouse EAC cells assessed as reduction in cell viability incubated for 2 hrs by trypan blue staining based microscopic analysis; format: functional
# [6] = system: ECa-109 cell line; assay: Antiproliferative activity against human EC109 cells; format: functional, cell-based
# [7] = system: SMMC-7721; assay: Antiproliferative activity against human SMMC-7721 cells; format: functional, cell-based
# [8] = system: MGC-803; assay: Antiproliferative activity against human MGC-803 cells; format: functional, cell-based
# [9] = system: MCF7; assay: cells; format: functional, cell-based; conditions: Homo sapiens
# [10] = system: HepG2; assay: cells; format: functional, cell-based; conditions: Homo sapiens
# Description: Antiproliferative activity against human HepG2 cells
# [11] = system: PC-3; assay: Antiproliferative activity against human PC-3 cells; format: functional, cell-based
# [12] = system: K562; assay: Antiproliferative activity against human K562 cells; format: functional, cell-based
# [13] = system: A549; assay: Antiproliferative activity against human A549 cells; format: functional, cell-based
# [14] = system: Escherichia coli; assay: Antimicrobial activity against Escherichia coli ATCC 25922; format: functional
# [15] = system: Streptococcus pneumoniae; assay: Antibacterial activity against Streptococcus pneumoniae incubated for 24 to 48 hrs by agar diffusion well method; format: functional; conditions: time 24-48 hrs
# [16] = system: Bacillus subtilis; assay: Antibacterial activity against Bacillus subtilis incubated for 24 to 48 hrs by agar diffusion well method; format: functional; conditions: time 24-48 hrs
# [17] = system: Pseudomonas aeruginosa; assay: Antibacterial activity against Pseudomonas aeruginosa incubated for 24 to 48 hrs by agar diffusion well method; format: functional; conditions: time 24-48 hrs
# [18] = system: Escherichia coli; assay: Antibacterial activity against Escherichia coli incubated for 24 to 48 hrs by agar diffusion well method; format: functional; conditions: time 24-48 hrs
# [19] = system: Streptococcus pneumoniae; assay: Antibacterial activity against Streptococcus pneumoniae RCMB 010010 incubated for 24 hrs by agar well diffusion method; format: functional
# [20] = system: Bacillus subtilis; assay: Antibacterial activity against Bacillus subtilis RCMB 010067 incubated for 24 hrs by agar well diffusion method; format: functional
# [21] = system: Pseudomonas aeruginosa; assay: Antibacterial activity against Pseudomonas aeruginosa ATCC 85327; format: functional
# [22] = system: Bacillus subtilis; assay: Antibacterial activity against Bacillus subtilis; format: functional
# [23] = system: MCF7; assay: Antiproliferative activity against human MCF7; format: functional, cell-based
# [24] = system: WI-38; assay: Antiproliferative activity against human WI-38; format: functional, cell-based
# [25] = cells; format: functional, cell-based; conditions: Homo sapiens, HCCC9810
# Description: Antiproliferative activity against human HCCC9810 cells
# [26] = system: Huh-7; assay: cells; format: functional, cell-based; conditions: Homo sapiens
# Description: Antiproliferative activity against human Huh-7 cells
# [27] = system: K562; assay: Antiproliferative activity against human K562 cells by MTT reduction assay; format: functional, cell-based
# [28] = system: HepG2; assay: Anticancer activity against human HepG2 cells by MTT assay; format: functional, cell-based
# [29] = system: MCF7; assay: Anticancer activity against human MCF7 cells by MTT assay; format: functional, cell-based
# [30] = system: HCT-116; assay: Anticancer activity against human HCT-116 cells by MTT assay; format: functional, cell-based
# [31] = Antiproliferative activity against human U87 cells; format: functional, cell-based, U-87MG ATCC; conditions: U-87 MG
# [32] = system: Staphylococcus aureus; assay: Antibacterial activity against Staphylococcus aureus ATCC 29213; format: functional
# [33] = system: Staphylococcus aureus; assay: Antibacterial activity against methicillin resistant Staphylococcus aureus ATCC 43300; format: functional
# [34] = system: Escherichia coli; assay: Antibacterial activity against Escherichia coli ATCC 25922; format: functional
# [35] = system: Klebsiella pneumoniae; assay: Antibacterial activity against Klebsiella pneumoniae ATCC 700603; format: functional
# [36] = system: Pseudomonas aeruginosa; assay: Antibacterial activity against Pseudomonas aeruginosa ATCC 27853; format: functional
# [37] = system: Pseudomonas aeruginosa; assay: Antibacterial activity against Pseudomonas aeruginosa No.010; format: functional
# [38] = system: Pseudomonas aeruginosa; assay: Antibacterial activity against multidrug resistant Pseudomonas aeruginosa 025; format: functional
# [39] = system: Pseudomonas aeruginosa; assay: Antibacterial activity against multidrug resistant Pseudomonas aeruginosa 034; format: functional
# [40] = system: CCRF-CEM; assay: Antiproliferative activity against human CCRF-CEM cells; format: functional, cell-based
# [41] = system: SK-OV-3; assay: Antiproliferative activity against human SK-OV-3 cells; format: functional, cell-based
compound,measurement,setting,value
CCOC(=O)C1=C(C(=O)OCC)C2(C(=O)Nc3ccccc32)N2CCCC12 (stereo not given),IC50,[1],2 µM
same,IC50,[2],3.3 µM
same,IC50,[3],8.3 µM
O=c1[nH]cc(F)c(=O)[nH]1 [FLUOROURACIL],IC50,[4],78.3 µM
same,ED25,[5],40 microg/cm3
same,IC50,[6],10.6 µM
same,IC50,[7],9.7 µM
same,IC50,[8],7.6 µM
CCOC(=O)C1=C(C)NC(=S)NC12C(=O)Nc1c(Cl)cc(Cl)cc12 (stereo not given),IC50,[9],21.3 µM
same,IC50,[10],28.4 µM
Cc1noc([C@H]2[C@H](c3ccc(Cl)cc3Cl)CN(C)[C@]23C(=O)Nc2ccc(Cl)cc23)c1[N+](=O)[O-],IC50,[11],13.1 µM
same,IC50,[12],10.7 µM
same,IC50,[13],21.5 µM
GENTAMICIN,MIC,[14],4 µg/mL
same,MIC,[15],inactive
same,MIC,[16],inactive
same,MIC,[17],15.6 µg/mL
same,MIC,[18],1.95 µg/mL
same,MIC,[19],inactive
same,MIC,[20],inactive
same,MIC,[21],8 µg/mL
same,MIC,[22],0.125 µg/mL
CN1C(=O)C2(SC[C@@H](C(=O)O)[C@@H]2C(=O)c2ccc(Cl)c(Cl)c2)c2ccccc21 (stereo not given in full),IC50,[23],36.3 µM
same,IC50,[24],55.1 µM
O=C1OC(c2ccccc2)=N[C@@]12[C@H](c1ccc(C(F)(F)F)cc1)[C@H]1CCCN1[C@]21C(=O)Nc2ccccc21,IC50,[25],7.2 µM
same,IC50,[26],7.9 µM
O=C1Nc2ccccc2[C@]12N1CSC[C@H]1[C@H](c1ccc(Br)cc1)[C@]21CCC/C(=C\c2ccc(Br)cc2)C1=O,IC50,[4],15.3 µM
same,IC50,[27],14.7 µM
Cc1noc([C@@H]2[C@H]3CCCN3[C@]3(C(=O)N(C)c4ccc(F)cc43)[C@@]23C(=O)N(C)c2ccccc23)c1[N+](=O)[O-],IC50,[11],51.6 µM
same,IC50,[12],25 µM
same,IC50,[13],39.7 µM
CN1C[C@H](c2ccc(Cl)cc2Cl)[C@@H](C(=O)c2cc3ccccc3[nH]2)C12C(=O)Nc1ccccc12 (stereo not given in full),IC50,[28],> 50 µM
same,IC50,[29],15 µM
same,IC50,[30],< 1 µM
O=NN(CCCl)C(=O)NCCCl [CARMUSTINE],IC50,[31],3.9 µM
COc1ccc(C2C3CCCN3C3(C(=O)Nc4ccccc43)C2C(=O)c2ccco2)cc1 (stereo not given),MIC,[32],64 µg/mL
same,MIC,[33],128 µg/mL
same,MIC,[34],128 µg/mL
same,MIC,[35],128 µg/mL
same,MIC,[36],15 µg/mL
same,MIC,[37],16 µg/mL
same,MIC,[38],16 µg/mL
same,MIC,[39],32 µg/mL
CCn1cc(C(=O)O)c(=O)c2cc(F)c(N3CCNCC3)cc21 [NORFLOXACIN],MIC,[36],2 µg/mL
same,MIC,[37],2 µg/mL
same,MIC,[38],> 64 µg/mL
same,MIC,[39],> 64 µg/mL
CC1(C)CC(=O)C2=C(C1)OC(N)=C(C#N)C21C(=O)N(CCCCCCCCCCBr)c2ccccc21 (stereo not given),IC50,[31],2.5 µM
Cc1ccccc1/C=C1\CNC[C@@]2(C1=O)[C@@H](c1ccccc1C)C1CCCN1[C@]21C(=O)Nc2ccccc21 (stereo not given in full),IC50,[40],3.6 µM
same,IC50,[41],35.8 µM

# From ChEMBL document CHEMBL5226286, “The application of isatin-based multicomponent-reactions in the quest for new bioactive and druglike molecules” (Eur J Med Chem, 2021)
